{"source": "patent US10072012B2", "about": "“Process for crystalline pemetrexed dipotassium salt” (SHILPA MEDICARE LIMITED, priority 2013, dated 2018)", "assay": "Handling and storage stability of crystalline Form-SP9", "format": "physicochemical", "settings": "handling and storage for longer time; solid state", "from_the_text": "Crystalline Form-SP9 retains its stoichiometry even on exposure to uncontrolled environmental conditions. This stable form thus, offers various advantages in terms of storage, shelf life and favorable impurity profile.", "data": [{"smiles": "Nc1nc2[nH]cc(CCc3ccc(C(=O)N[C@@H](CCC(=O)[O-])C(=O)[O-])cc3)c2c(=O)[nH]1.[K+].[K+]", "note": "[Form-SP9, Pemetrexed dipotassium]", "values": [{"measurement": "stability of the crystal form (morphology and physicochemical characteristics)", "value": "very stable crystal lattice"}]}]}
